Measured values taken from US20220096516A1, “OLIGONUCLEOTIDE MOLECULE AND APPLICATION THEREOF IN TUMOR THERAPY” (Ractigen Therapeutics, priority 2019, published 2022).
d = 2'-deoxy (DNA); r = 2'-OH (RNA)

test system: LHPP gene; assay: High-throughput screening of saRNAs targeting LHPP promoter: LHPP mRNA by one-step RT-qPCR in Huh7 cells; type: cell-based, human; conditions: 10 nM saRNA, 72 hours, relative to control (Mock)
Method: Human liver cancer cell line Huh7 was cultured in DMEM medium (Gibco), containing 10% of calf serum (Sigma-Aldrich) and 1% of penicillin/streptomycin (Gibco). The cells were cultured at 5% CO2 and 37° C. According to the instructions provided by the manufacturer, RNAiMax (Invitrogen, Carlsbad, Calif.) was used to transfect small activating RNAs at a concentration of 10 nM (unless otherwise specified).
At the end of transfection, the media were discarded, and each well was washed with 150 μL of PBS once. After discarding the PBS, 50 μL of cell lysis buffer (Takara) was added to each well and incubated at room temperature for 5 min. 1 μL of the resulted cell lysis was taken from each well and analyzed by qPCR on an ABI 7500 fast real-time PCR system (Applied Biosystems) using a one-step TB Green™ PrimeScrip™ RT-PCR kit II (Takara, RR086A) Each transfection sample was repeatedly amplified in 3 replicate wells.
Reaction conditions were as follows: reverse transcription reaction (stage 1): 5 min at 42° C., 10 s at 95° C.; PCR reaction (stage 2): 5 s at 95° C., 20 s at 60° C., 45 cycles of amplification. HPRT1 and TBP were used as internal reference genes. PCR primers used for amplifying LHPP, HPRT1 and TBP genes are shown in Table 2, wherein LHPP was amplified using the LHPP F1/R1 primer pair.
To calculate the relative expression level (Erel) of LHPP (target gene) in an saRNA-transfected sample relative to control treatment (Mock), the Ct values of the target gene and the two internal reference genes were substituted into formula 1
Erel=2^(CtT^m^-CtT^s^)/((2^(CtR1^m^-CtR1^s^)*2^(CtR2^m^-CtR2^s^))^(1/2))
wherein CtTm was the Ct value of the target gene from the control (Mock) sample; CtTs was the Ct value of the target gene from the saRNA-treated sample; CtR1m was the Ct value of the internal reference gene 1 from the control (Mock) sample; CtR1s was the Ct value of the internal reference gene 1 from the saRNA-treated sample; CtR2m was the Ct value of the internal reference gene 2 from the control (Mock) sample; and CtR2s was the Ct value of the internal reference gene 2 from the saRNA-treated sample.
In order to obtain saRNAs capable of activating LHPP transcription, Huh7 cells were transfected with each of the aforementioned 290 saRNAs with a transfection concentration of 10 nM, and 72 hours later, according to the same method as described above, the cells were lysed and analyzed by one-step RT-qPCR to obtain the relative (compared with the control (Mock)) expression level of LHPP gene for each saRNA-treated sample. […] The observed maximum activation and maximum inhibition is 3.46 fold and 0.49 fold, respectively, saRNAs with activating activity are referred to as activating saRNAs, and the saRNAs with inhibiting activity are referred to as inhibiting saRNAs.

Substance | Fold of changes in relative LHPP mRNA expression level [fold] | Fold of changes in relative LHPP mRNA expression level (log2)
RAG7-121: saRNA duplex; sense CUGAUCUCCUGGGAAGAAATT (SEQ ID NO: 52), antisense UUUCUUCCCAGGAGAUCAGTT (SEQ ID NO: 216) (sugars from the 5' end r19 d2, backbone not given here) | 1.36 | 0.45
RAG7-702: saRNA duplex; sense CUCAGCCCAGGUCCUAUGCTT (SEQ ID NO: 140), antisense GCAUAGGACCUGGGCUGAGTT (SEQ ID NO: 304) (sugars from the 5' end r19 d2, backbone not given here) | 1.14 | 0.19
RAG7-687: saRNA duplex; sense AUGCAUCCUCAUCUAUGCATT (SEQ ID NO: 162), antisense UGCAUAGAUGAGGAUGCAUTT (SEQ ID NO: 326) (sugars from the 5' end r19 d2, backbone not given here) | 1.10 | 0.14
RAG7-98: saRNA duplex; sense CCGAAAAGGACACCGUUUCTT (SEQ ID NO: 145), antisense GAAACGGUGUCCUUUUCGGTT (SEQ ID NO: 309) (sugars from the 5' end r19 d2, backbone not given here) | 1.14 | 0.19
RAG7-32: saRNA duplex; sense UUGCACCCGGUCUUCUUGCTT (SEQ ID NO: 44), antisense GCAAGAAGACCGGGUGCAATT (SEQ ID NO: 208) (sugars from the 5' end r19 d2, backbone not given here) | 1.40 | 0.49
RAG7-191: saRNA duplex; sense GCCUUCUUGUCUCAAUUUGTT (SEQ ID NO: 88), antisense CAAAUUGAGACAAGAAGGCTT (SEQ ID NO: 252) (sugars from the 5' end r19 d2, backbone not given here) | 1.25 | 0.32
RAG7-722: saRNA duplex; sense UGUGAUAGUCCCGUUUUCUTT (SEQ ID NO: 135), antisense AGAAAACGGGACUAUCACATT (SEQ ID NO: 299) (sugars from the 5' end r19 d2, backbone not given here) | 1.15 | 0.21
RAG7-144: saRNA duplex; sense CUGCUUUUCCUGCUCUUUGTT (SEQ ID NO: 18), antisense CAAAGAGCAGGAAAAGCAGTT (SEQ ID NO: 182) (sugars from the 5' end r19 d2, backbone not given here) | 1.56 | 0.64
RAG7-902: saRNA duplex; sense CUCAAAGCUAUGUUGGACCTT (SEQ ID NO: 50), antisense GGUCCAACAUAGCUUUGAGTT (SEQ ID NO: 214) (sugars from the 5' end r19 d2, backbone not given here) | 1.38 | 0.46
RAG7-670: saRNA duplex; sense CAGGGCUGUUAUCUGCAUATT (SEQ ID NO: 136), antisense UAUGCAGAUAACAGCCCUGTT (SEQ ID NO: 300) (sugars from the 5' end r19 d2, backbone not given here) | 1.15 | 0.20
RAG7-909: saRNA duplex; sense UUGAAAGCUCAAAGCUAUGTT (SEQ ID NO: 23), antisense CAUAGCUUUGAGCUUUCAATT (SEQ ID NO: 187) (sugars from the 5' end r19 d2, backbone not given here) | 1.53 | 0.61
RAG7-911: saRNA duplex; sense CUUUGAAAGCUCAAAGCUATT (SEQ ID NO: 160), antisense UAGCUUUGAGCUUUCAAAGTT (SEQ ID NO: 324) (sugars from the 5' end r19 d2, backbone not given here) | 1.11 | 0.15
RAG7-821: saRNA duplex; sense ACUCCUCCCUUUUAAUAUCTT (SEQ ID NO: 89), antisense GAUAUUAAAAGGGAGGAGUTT (SEQ ID NO: 253) (sugars from the 5' end r19 d2, backbone not given here) | 1.25 | 0.32
RAG7-695: saRNA duplex; sense CAGGUCCUAUGCAUCCUCATT (SEQ ID NO: 54), antisense UGAGGAUGCAUAGGACCUGTT (SEQ ID NO: 218) (sugars from the 5' end r19 d2, backbone not given here) | 1.36 | 0.44
RAG7-745: saRNA duplex; sense AAAACCUCCUGGGUUUAACTT (SEQ ID NO: 154), antisense GUUAAACCCAGGAGGUUUUTT (SEQ ID NO: 318) (sugars from the 5' end r19 d2, backbone not given here) | 1.11 | 0.15
RAG7-92: saRNA duplex; sense AGGACACCGUUUCAGGGGCTT (SEQ ID NO: 155), antisense GCCCCUGAAACGGUGUCCUTT (SEQ ID NO: 319) (sugars from the 5' end r19 d2, backbone not given here) | 1.11 | 0.15
RAG7-142: saRNA duplex; sense GCUUUUCCUGCUCUUUGUCTT (SEQ ID NO: 164), antisense GACAAAGAGCAGGAAAAGCTT (SEQ ID NO: 328) (sugars from the 5' end r19 d2, backbone not given here) | 1.10 | 0.14
RAG7-29: saRNA duplex; sense CACCCGGUCUUCUUGCCCUTT (SEQ ID NO: 79), antisense AGGGCAAGAAGACCGGGUGTT (SEQ ID NO: 243) (sugars from the 5' end r19 d2, backbone not given here) | 1.28 | 0.35
RAG7-122: saRNA duplex; sense GCUGAUCUCCUGGGAAGAATT (SEQ ID NO: 103), antisense UUCUUCCCAGGAGAUCAGCTT (SEQ ID NO: 267) (sugars from the 5' end r19 d2, backbone not given here) | 1.21 | 0.28
RAG7-86: saRNA duplex; sense CCGUUUCAGGGGCGAGUGATT (SEQ ID NO: 137), antisense UCACUCGCCCCUGAAACGGTT (SEQ ID NO: 301) (sugars from the 5' end r19 d2, backbone not given here) | 1.15 | 0.20
RAG7-892: saRNA duplex; sense UGUUGGACCAGAAGUAAAGTT (SEQ ID NO: 2), antisense CUUUACUUCUGGUCCAACATT (SEQ ID NO: 166) (sugars from the 5' end r19 d2, backbone not given here) | 2.05 | 1.03
RAG7-35: saRNA duplex; sense GGUUUGCACCCGGUCUUCUTT (SEQ ID NO: 24), antisense AGAAGACCGGGUGCAAACCTT (SEQ ID NO: 188) (sugars from the 5' end r19 d2, backbone not given here) | 1.53 | 0.61
